Assay results: PMC7551886, “Antitumour Effects of Astaxanthin and Adonixanthin on Glioblastoma” (Marine Drugs, 2020)

How the values were obtained:
GL261 cells [1] = assay: Cell viability (CCK-8 assay) in GL261; format: cell-based, mouse; conditions: GL261, treated for 96 h
Method: (§1) U251MG, GL261, or U87MG cells were seeded onto 96-well plates at a density of 2 × 10^3 cells/well with DMEM supplemented with 10% FBS and then incubated for 24 h, after which the culture medium was changed to DMEM containing 10% FBS. Then, astaxanthin, adonixanthin or temozolomide (Tokyo Chemical Industry Co., Ltd., Tokyo, Japan) were added to the culture. Cell proliferation was determined using the CCK-8 assay according to the manufacturer’s instructions (Dojindo, Kumamoto, Japan). After each incubation, 10 μL of CCK-8 solution were added to each well. Plates were incubated for 3 h for 37 °C, and the absorbance was read at 450 nm with a reference wavelength of 630 nm using a Varioscan Flash 2.4 microplate reader (Thermo Fisher Scientific, Waltham, MA, USA).

U251MG cells = assay: Cell viability (CCK-8 assay) in U251MG; format: cell-based, human; conditions: treated for 96 h
Method: as §1

GL261 cells [2] = assay: Wound healing (cell migration) assay in GL261; format: cell-based, mouse; conditions: GL261, 10 µM, 48 h
Method: The cell migration assay was conducted as previously described. GL261 cells and U251 cells (2.0 × 10^4 cells per well) were plated in a 12-well plate (BD Biosciences, Tokyo, Japan) with culture medium supplemented with 10% FBS. After 24 h of incubation, the medium was changed to DMEM containing 1% FBS. After 6 h, wounds were scratched by a P1000 pipette tip and washed with phosphate-buffered saline (PBS) to eliminate cell debris. Then, fresh medium was added with 10 µM astaxanthin or adonixanthin. Pictures were taken at 48 h and these scratched areas were measured using an All-in-One Fluorescence Microscope (BZ-X710; Keyence, Osaka, Japan). The cell migration rate was measured the area of the wound before migration (S0) and after migration (S1) and calculated […]. The control group was then standardized to be 100%. Wound widths at 0 h were created within 1 to 1.5 mm and data were excluded if they were not suitable for that width.

ERK1/2 = assay: Immunoblotting, phosphorylation of ERK1/2 in GL261; format: cell-based, mouse; conditions: GL261, 10 µM, 6 h post-treatment
Method: GL261 cell was seeded at 2.5 × 10^4 cells per well in 24-well plates with culture medium supplemented with 10% FBS. After 24 h of incubation, the medium was changed to DMEM containing 10% FBS and 0.1%DMSO PBS, 300 μM temozolomide, 10 μM astaxanthin, or 10 μM adonixanthin was added for 6 and 48 h. Cells were lysed in a special buffer (RIPA buffer R0278; Sigma-Aldrich, St. Louis, MO, USA) with a protease inhibitor cocktail (Sigma-Aldrich), phosphatase inhibitor cocktails 2 and 3 (Sigma-Aldrich), and sample buffer (Wako, Osaka, Japan). The protein concentration was determined by comparison with a known concentration of bovine serum albumin using the BCA Protein Assay Kit (Thermo Fisher Scientific). The amount of total protein was 2 μg. […] The band intensity was […] using an Immuno Star LD (Wako). Band intensity was measured using an LAS-4000 UV mini Luminescent Image Analyzer (Fujifilm, Tokyo Japan) and Multi Gauge Version 3.0 (Fujifilm). The phosphorylation of ERK1/2, Akt, and p38 MAPK was measured by normalizing against total ERK1/2, total Akt, and total p38 MAPK. […]

[3] = system: GL261 cells (intracranial injection); assay: Murine orthotopic glioblastoma model; format: in vivo, mouse; conditions: oral 10 and 30 mg/kg for 10 days, 2 weeks after GL261 cell injection
Method: Murine glioblastoma cell (GL261) transplantation was performed as previously described. Briefly, mice received an intracranial injection of 1 × 10^5 cells in 2 µL of PBS using a Hamilton microliter syringe at the following coordinates: 1 mm anterior, 2 mm lateral (left of middle) to bregma, at a depth of 3 mm from the dural surface. This protocol was completed using a stereotactic frame. In the experiment of the murine orthotopic glioblastoma model, oral administration of each astaxanthin (10 and 30 mg/kg) and adonixanthin (10 and 30 mg/kg) was initiated 3 days after intracranial injection of GL261 cells and was continued for 10 days. In the experiment of the brain tissue absorption with oral astaxanthin or adonixanthin, after one week of adaptation, ICR mice were randomly divided into the following three groups: control group, astaxanthin group (50 mg/kg), and adonixanthin group (50 mg/kg). Mice were orally administered each reagent suspended in olive oil (5 mL/kg) by the daily single dose for 10 days. The control group was treated by olive oil alone (5 mL/kg). Mice were euthanized and […] perfused with cold saline for 2 min at room temperature. […] Pictures were taken using an All-in-One Fluorescence Microscope (BZ-X710; Keyence, Osaka, Japan). We assessed the maximum cross-sectional area of the tumour and tumour volume as described previously.

Row | Structure (SMILES) | concentration above which cell viability was suppressed (GL261 cells [1]) | concentration above which cell viability was suppressed (U251MG cells) | suppression of cell migration (GL261 cells [2]) | phosphorylation of ERK1/2 (ERK1/2) | tumour enlargement (tumour area and volume) [3]
1 | CC1=C(/C=C/C(C)=C/C=C/C(C)=C/C=C/C=C(C)/C=C/C=C(C)/C=C/C2=C(C)C(=O)[C@@H](O)CC2(C)C)C(C)(C)C[C@H](O)C1 [Adonixanthin, adonixanthin] | > 0.1 µM | > 0.1 µM | 13.74 ± 4.01% | decreased | significantly suppressed tumour enlargement
2 | CC1=C(/C=C/C(C)=C/C=C/C(C)=C/C=C/C=C(C)/C=C/C=C(C)/C=C/C2=C(C)C(=O)[C@@H](O)CC2(C)C)C(C)(C)C[C@H](O)C1=O [Astaxanthin, astaxanthin] | more than 5 µM | more than 1 µM | 8.84 ± 2.09% | decreased | significantly suppressed tumour enlargement
